Assay results: publication PMC5874719, “A π-Halogen Bond of Dibenzofuranones with the Gatekeeper Phe113 in Human Protein Kinase CK2 Leads to Potent Tight Binding Inhibitors” (Pharmaceuticals, 2018)
pIC50: −log10 of the molar value.

Assays:
[1] = system: caspases 3 and 7 in LNCaP cells; test: Caspase-Glo 3/7 assay; type: cell-based, human; settings: for caspase 3/7 activity, maximum obtained: 25 or 50 µM, 24 or 48 h; for caspase 3/7 activity: 50 µM, 48 h
Description: Reducing the activity of CK2 by the inhibitors is supposed to overcome the antiapoptotic effect of the enzyme and cells are induced to undergo apoptosis. […] In consequence, we analyzed in the next experiments whether the cells were killed by apoptosis. Hallmark of apoptosis is the activation of the key effector caspases 3 and 7 which ends in the cleavage of poly (ADP ribose) polymerase PARP1. The full-length PARP1 is cleaved by the caspases to an 89 and a 24 kDa fragment. These events of late apoptotic signaling were analyzed in ARPE19 and LNCaP cells grown in the presence and in the absence of dibenzofurans. Inhibitor concentrations of 25 and 50 µM were used and were applied for 24 and 48 h. In cell lysates of LNCaP and ARPE19 cells the activity of caspases 3 and 7 was determined subsequently by a luminescence based assay (Figure 6A).
(A) ARPE19 or LNCaP cells were treated with DMSO as control (0 μM) or with 25 or 50 μM 4b, 4a or 5 for 24 or 48 h. Activity of caspases 3 and 7 was determined using the luminescent Caspase-Glo® 3/7 assay according to the technical bulletin of the manufacturer. Median relative light units (RLU) + standard deviation from at least three independent experiments are shown in the bar graph. (B) Cells were treated as described before. 75 μg cell extract was separated in a 10% SDS polyacrylamide gel and analyzed in a Western blot analysis with a rabbit polyclonal antibody against PARP1. + is a positive control for PARP cleavage.
The activity of the apoptotic key effector caspases 3 and 7 in cell extracts was determined using the Caspase-Glo 3/7 assay according to the protocol of the manufacturer (Promega, Mannheim, Germany).

[2] = target: T1, surface displayed CK2α’ + CK2β (CK2α’ containing human CK2 holoenzyme) (Homo sapiens, UniProt P19784); test: whole-cell CK2 selectivity assay, holoenzyme surface displayed on E. coli; type: biochemical; settings: for pIC50: CK2α’ + CK2β displayed on E. coli, 600 µM ATP, 100 µM substrate peptide; for factor of stronger inhibition of CK2α’ containing holoenzyme in comparison to CK2α containing holoenzyme: whole-cell assay, not statistically significant
T1 construct: surface-display (autodisplay) carrier protein; made in house; host or cells: Escherichia coli BL21 (DE3), enzyme left on the cell surface
Description: We recently reported a whole cell CK2 activity assay, which can be used for testing the selectivity of compounds towards CK2α and CK2α’ [47]. It is based on the surface display of the human CK2 subunits, either α or α’ together with β on E. coli, were they are able to form a functional tetrameric holoenzymes, either ααββ or α’α’ββ, depending on which α isoform has been expressed. This technique was used to investigate whether 4a or 5 have preference to one of the two catalytic isoforms of CK2.
For this purpose, their IC50 were determined following the protocol of the recently described whole-cell CK2 selectivity assay. In summary, 78 µL of a bacterial suspension of Escherichia coli BL21 (DE3) either surface displaying CK2α + CK2β or CK2α’ + CK2β in kinase buffer (50 mM Tris/HCl, pH 8.5, 100 mM NaCl, 10 mM MgCl2 and 1 mM DTT) were supplemented with 2 µL of the test compound dissolved in DMSO and incubated at 37 °C and 400 rpm for 10 min. CK2 reactions were started by the addition of 120 µL of assay buffer (25 mM Tris/HCl, pH 7.5, 150 mM NaCl, 5 mM MgCl2, 1 mM DTT, 167 µM substrate peptide […] and 1 mM ATP) leading to a total reaction volume of 200 µL with final concentrations of 100 µM for the substrate peptide and 600 µM for ATP. […] After the samples were incubated for 120 min at 37 °C and 400 rpm, the CK2 presenting bacteria were removed by centrifugation (3850× g, 5 min, 4 °C). The obtained supernatants were transferred to the wells of a 96 well-microplate and finally supplemented with EDTA to a concentration of 12.5 mM to definitely stop the enzymatic reactions. The samples were then subjected to a Beckman Coulter pa800 plus (Krefeld, Germany) CE system and analyzed for phosphorylation of the substrate peptide. Samples containing pure DMSO served as controls for 0% inhibition and samples additionally lacking ATP served as controls for 100% inhibition. […] IC50 values were calculated from the resulting dose-response curves.
CK2α’ + CK2β (right column).
Mean values ± standard errors of
the means (SEM) are shown. […]

CAMKK2 = target: T2, CAMKK2 (Homo sapiens, UniProt Q96RR4); test: kinase selectivity profile; type: biochemical; settings: 10 µM inhibitor, 10 µM ATP
T2 construct: purchased Reaction Biology Corp
Description: (§1) This demands further investigation.

FLT3 (D835Y) = target: T3, FLT3 (D835Y) (Homo sapiens, UniProt P36888, D835Y); test: kinase selectivity profile; type: biochemical; settings: 10 µM inhibitor, 10 µM ATP
T3 construct: purchased Reaction Biology Corp
Description: as §1

FLT3 = target: T4, FLT3 (Homo sapiens, UniProt P36888); test: kinase selectivity profile; type: biochemical; settings: 10 µM inhibitor, 10 µM ATP
T4 construct: purchased Reaction Biology Corp
Description: as §1

Aurora A = target: T5, Aurora A (Homo sapiens, UniProt O14965); test: kinase selectivity profile; type: biochemical; settings: 10 µM inhibitor, 10 µM ATP
T5 construct: purchased Reaction Biology Corp
T5 sequence (O14965 1-403): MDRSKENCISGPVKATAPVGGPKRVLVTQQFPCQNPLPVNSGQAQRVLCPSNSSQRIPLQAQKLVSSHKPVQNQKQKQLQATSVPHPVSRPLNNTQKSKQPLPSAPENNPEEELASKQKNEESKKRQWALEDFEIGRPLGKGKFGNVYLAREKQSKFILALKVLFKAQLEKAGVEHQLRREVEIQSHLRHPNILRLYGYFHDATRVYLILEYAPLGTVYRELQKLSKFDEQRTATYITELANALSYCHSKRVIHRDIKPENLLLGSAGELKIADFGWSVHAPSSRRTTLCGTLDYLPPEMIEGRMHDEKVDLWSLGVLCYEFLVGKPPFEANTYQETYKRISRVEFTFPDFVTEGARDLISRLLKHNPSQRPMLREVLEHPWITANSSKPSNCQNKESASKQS
Description: as §1

[3] = system: panel of 61 human protein kinases; test: kinase selectivity profile, whole panel; type: biochemical; settings: 10 µM inhibitor, 10 µM ATP
Description: as §1

CK2α = target: T6, CK2α (Homo sapiens, UniProt P68400); test: kinase selectivity profile (Reaction Biology Corp.); type: biochemical; settings: 10 µM inhibitor, 10 µM ATP, relative to control without inhibitor; read-out: residual activity
T6 construct: purchased Reaction Biology Corp
Description: as §1

CK2α’ = target: T7, CK2α’ (Homo sapiens, UniProt P19784); test: as above; type: biochemical; settings: 10 µM inhibitor, 10 µM ATP, relative to control without inhibitor; read-out: residual activity
T7 construct: purchased Reaction Biology Corp
Description: as §1

T1 sequence (P19784 whole entry): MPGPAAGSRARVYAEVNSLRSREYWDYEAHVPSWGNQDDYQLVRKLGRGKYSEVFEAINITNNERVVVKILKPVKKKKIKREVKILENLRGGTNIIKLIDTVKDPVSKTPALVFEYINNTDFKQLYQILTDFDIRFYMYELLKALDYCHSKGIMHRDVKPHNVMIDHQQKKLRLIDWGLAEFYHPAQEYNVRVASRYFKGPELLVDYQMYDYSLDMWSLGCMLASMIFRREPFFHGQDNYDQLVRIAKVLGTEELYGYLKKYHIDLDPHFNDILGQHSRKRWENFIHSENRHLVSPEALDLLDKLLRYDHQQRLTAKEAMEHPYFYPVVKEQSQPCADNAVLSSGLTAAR
T1 sequence (P67870 whole entry partner): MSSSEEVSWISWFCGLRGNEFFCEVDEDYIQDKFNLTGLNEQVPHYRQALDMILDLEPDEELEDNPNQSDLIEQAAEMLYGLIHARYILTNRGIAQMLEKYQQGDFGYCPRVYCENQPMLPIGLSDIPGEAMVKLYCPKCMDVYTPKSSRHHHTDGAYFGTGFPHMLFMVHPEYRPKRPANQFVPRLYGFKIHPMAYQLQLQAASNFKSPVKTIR
T6 sequence (P68400 whole entry): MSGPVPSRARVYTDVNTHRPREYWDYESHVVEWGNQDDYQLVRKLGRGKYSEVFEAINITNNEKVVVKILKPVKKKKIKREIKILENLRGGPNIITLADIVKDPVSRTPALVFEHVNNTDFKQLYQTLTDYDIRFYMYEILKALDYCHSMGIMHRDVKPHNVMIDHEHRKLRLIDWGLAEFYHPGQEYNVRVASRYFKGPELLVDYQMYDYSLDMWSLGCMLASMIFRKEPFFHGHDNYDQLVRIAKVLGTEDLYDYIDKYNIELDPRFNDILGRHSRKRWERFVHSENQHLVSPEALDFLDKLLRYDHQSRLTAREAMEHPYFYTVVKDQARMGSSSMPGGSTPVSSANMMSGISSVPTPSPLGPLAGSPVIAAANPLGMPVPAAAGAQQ
T7 sequence (P19784 whole entry): as the sequence (P19784 whole entry) above
T2 sequence (Q96RR4 whole entry): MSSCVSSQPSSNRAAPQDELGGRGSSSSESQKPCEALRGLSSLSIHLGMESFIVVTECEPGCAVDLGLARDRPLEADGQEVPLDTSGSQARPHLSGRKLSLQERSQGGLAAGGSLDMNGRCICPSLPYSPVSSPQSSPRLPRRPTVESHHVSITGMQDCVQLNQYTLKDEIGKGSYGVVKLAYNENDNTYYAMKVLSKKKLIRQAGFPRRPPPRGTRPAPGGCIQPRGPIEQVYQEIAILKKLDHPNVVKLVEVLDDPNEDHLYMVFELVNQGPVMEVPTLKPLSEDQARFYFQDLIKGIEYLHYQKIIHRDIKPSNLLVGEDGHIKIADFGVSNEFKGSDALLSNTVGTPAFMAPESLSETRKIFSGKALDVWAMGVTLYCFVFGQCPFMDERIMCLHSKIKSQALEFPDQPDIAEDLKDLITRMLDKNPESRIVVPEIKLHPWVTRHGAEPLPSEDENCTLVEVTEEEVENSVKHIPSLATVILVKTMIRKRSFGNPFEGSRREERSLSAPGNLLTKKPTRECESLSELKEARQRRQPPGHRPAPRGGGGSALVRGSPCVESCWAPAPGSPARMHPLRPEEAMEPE

Row | SMILES | caspase 3/7 activity, maximum obtained [1] | pIC50 [2] | factor of stronger inhibition of CK2α’ containing holoenzyme in comparison to CK2α containing holoenzyme [2] | kinase inhibited more than 70% at 10 µM concentration (CAMKK2) | kinase inhibited more than 70% at 10 µM concentration (FLT3 (D835Y)) | kinase inhibited more than 70% at 10 µM concentration (FLT3) | kinase inhibited more than 70% at 10 µM concentration (Aurora A) | number of kinases out of the 61 kinases inhibited to more than 70% [3] | remaining activity at 10 µM (CK2α) [%] | remaining activity at 10 µM (CK2α’) [%] | caspase 3/7 activity [1]
1 | COc1ccc(N/C=C2\C(=O)CCc3c2oc2cc(Cl)c(O)c(Cl)c32)cc1 [4a, 7,9-dichloro-1,2-dihydro-8-hydroxy-4-[(4-methoxyphenylamino)methylene]dibenzo[b,d]furan-3(2H)-one] | 17,000 RLU | 7.37 | 1.5 | CAMKK2 | FLT3 (D835Y) | FLT3 | Aurora A | 6 | < 2 | < 1 | –
2 | Cc1ccc(NC=C2C(=O)CCc3c2oc2c(Cl)c(Cl)c(O)cc32)cc1 [4b, 6,7-dichloro-1,4-dihydro-8-hydroxy-4-[(4-methylphenylamino)methylene]dibenzo[b,d]furan-3(2H)-one] | – | – | – | – | – | – | – | – | – | – | > 50,000 RLU
3 | COc1ccc(/N=C/c2c(O)ccc3c2oc2cc(Cl)c(O)c(Cl)c23)cc1 [compound 5, (E)-1,3-dichloro-6-[(4-methoxyphenylimino)methyl]dibenzo[b,d]furan-2,7-diol] | 55,000 RLU | 7.14 | 1.5 | CAMKK2 | FLT3 (D835Y) | FLT3 | Aurora A | 11 | < 2 | < 1 | > 50,000 RLU
